Here are results for eight compounds from article PMC2879362, “Design of Group IIA Secreted/Synovial Phospholipase A2 Inhibitors: An Oxadiazolone Derivative Suppresses Chondrocyte Prostaglandin E2 Secretion” (PLoS ONE, 2010).

In experiment [1] the target is T1, porcine group IB PLA2 (pGIBPLA2) (Sus scrofa, UniProt P00592).
T1 construct: purchased Sigma
Description: In vitro fluorimetric PLA2 assay (β-py-C10-PG substrate). The experiment is classed as biochemical. The following applies: 2 µM β-py-C10-PG, 6 ng/mL pancreatic PLA2. As for the experimental part: (§1) The compounds C1-C8 were submitted to fluorimetric assay to determine their inhibitory potencies and selectivity towards human GIIAPLA2 (hGIIAPLA2) versus porcine group IB PLA2 (pGIBPLA2) (Table 2). GIBPLA2 is an enzyme of the same family as GIIAPLA2 (sPLA2) but is mainly involved in digestion of dietary phospholipids and is secreted by the pancreas. Lipophilicity parameters, log P, of these products are calculated by use of Rekker's fragmental data (Table 2). The molecules C1-C8 are specific inhibitors of hGIIAPLA2 because none inhibited pGIBPLA2 at the highest concentration tested (100 µM). Such selectivity implies that C1-C8 should not interfere with the digestion process.
(§2) Fatty-acid free BSA and pancreatic PLA2 were from Sigma. hGIIAPLA2 was prepared as previously described. The fluorescent substrate for PLA2 assay, 1-hexadecanoyl-2-(10-pyrenedecanoyl)-sn-glycero-3-phosphoglycerol, ammonium salt (β-py-C10-PG) was from Molecular Probes (Eugene). PLA2 activity was evaluated as previously described with β-py-C10-PG used as a substrate (2 µM final concentration). In a total volume of 1 mL, the standard reaction medium contained 50 mM Tris-HCl (pH 7.5), 500 mM NaCl, 1 mM EGTA, 2 µM β-py-C10-PG, 0.1% fatty-acid free BSA and 6 ng/mL pancreatic PLA2 or 1 ng/mL hGIIAPLA2. The fluorescence (λex = 342 nm and λem = 398 nm) of the enzymatic reaction medium was recorded for 3 min with use of a spectrofluorimeter LS 50 (Perkin-Elmer) equipped with a Xenon lamp. The reaction was initiated by the addition of CaCl2 (10 mM, final concentration). The increase in fluorescence was continuously recorded for 1 min, and PLA2 activity was calculated as previously described. When used, the inhibitor was added to the reaction medium after introduction of BSA. The activity is expressed in micromoles of fluorescent β-py-C10-PG hydrolyzed per min. The standard error of the mean of three independent experiments was less than 10%, which allows for the determination of the IC50 values (concentration of inhibitors producing 50% inhibition) of each compound.

In experiment [2] the target is T2, human GIIAPLA2 (hGIIAPLA2) (Homo sapiens, UniProt P14555).
T2 construct: hGIIAPLA2 was prepared as previously described [33]; made in house
T2 sequence (P14555 21-144): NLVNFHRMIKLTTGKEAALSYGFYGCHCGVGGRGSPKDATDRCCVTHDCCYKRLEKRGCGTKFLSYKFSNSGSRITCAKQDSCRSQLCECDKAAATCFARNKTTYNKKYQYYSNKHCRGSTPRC
The experiment is described as above. It counts as biochemical. The following applies: 2 µM β-py-C10-PG, 1 ng/mL hGIIAPLA2. The protocol: as §1, §2

For experiment [3], the system named is IL-1β-stimulated PGE2 secretion in articular chondrocytes. Description: IL-1β-stimulated PGE2 secretion in articular chondrocytes (EIA). It counts as cell-based, rabbit. To be noted: C1 at 8 µM, IL-1β 1 ng/mL (data not shown). As for the experimental part: We tested the effect of C8 on the IL-1β-stimulated secretion of PGE2 in chondrocytes. PGE2 synthesis takes place mainly in response to cell activation by IL-1β, and its generation accounts for many of the actions induced by this cytokine. In vitro, IL-1β induces the expression of COX-2 by chondrocytes, which results in increased PGE2 production. PGE2 release thus represents a powerful IL-1β- and PLA2-dependent inflammatory marker in our cell model. Chondrocytes were treated for 20 h with IL-1β alone or 1 h after the addition of C8. […] In DMEM alone, at concentrations of 0.31-, 0.62-, 0.94-, and 1.24-µM, C8 decreased the production of PGE2 induced by IL-1β by 59-, 58-, 74-, and 80-%, respectively (Fig. 4A). In DMEM supplemented with 0.1% BSA, at concentrations of 0.31-, 0.62-, 0.94-, 1.24-, 2.48-, and 4.96-µM, C8 decreased the production of PGE2 induced by IL-1β by 31-, 30-, 45-, 43-, 81-, and 92-%, respectively (Fig. 4B). In DMEM supplemented with 2% FCS, at concentrations of 0.31-, 0.62-, 0.94-, 1.24-, 2.48-, and 4.96-µM, C8 decreased the production of PGE2 induced by IL-1β by 26-, 48-, 49-, 54-, 68-, and 68-%, respectively (Fig. 4C). […] The effect of C8 was then evaluated at the extreme concentrations (0.31- and 4.96-µM) in DMEM supplemented with 2% FCS and containing decreasing (1-, 0.5-, and 0.25-ng/mL) IL-1β concentrations (Table 3). The anti-IL-1β inhibitory effect of C8 at 0.31 µM increases when IL-1β concentration decreases. […] This is probably due to the fact that at 4.96 µM, the inhibitory effect of C8 on IL-1β-induced PGE2 production is maximal. […] Thus, C8, but not C1, decreases the IL-1β-stimulated PGE2 secretion in a dose-dependent manner in the three culture medium compositions used.
Articular chondrocytes were isolated from 5-week-old Fauve de Bourgogne female rabbits (CPA, Orleans, France) and cultured at the first passage in conditions avoiding cell dedifferentiation as previously described. Cells were cultured at 37°C in 12-well plates in Ham's F-12 medium containing 10% FCS, 20 IU/mL penicillin, and 20 µg/mL streptomycin (all from Invitrogen) until nearly confluent. Then medium was replaced with DMEM (Invitrogen) containing 20 IU/mL penicillin, and 20 µg/mL streptomycin and, if necessary, 0.1% fatty acid free BSA (Sigma) or 2% FCS. At this time the C8 compound dissolved in DMSO (Sigma) was added to the medium (the amount of DMSO was kept at 1‰ (v/v) in all the wells). 1 h after the addition of C8, IL-1β (PeproTech) was added to the medium. Consequently, chondrocytes were incubated for 20 h with IL-1β and for 21 h with C8.
20 h after the addition of IL-1β to the chondrocytes, culture media were collected, and aliquots were stored at −80°C until PGE2 and nitrite quantification. PGE2 concentration in culture media was determined by use of an enzyme immunoassay (EIA) kit (PGE2 EIA Kit-monoclonal; Cayman Chemical). Nitrite concentration was determined by a spectrophotometry method based on the Griess reaction. Briefly, 200 µL of culture medium or sodium nitrite (NaNO2, Merck) standard dilutions were mixed with 100 µL Griess reagent [0.5% (w/v) sulphanilic acid (Merck), 0.05% (w/v) N(1-naphtyl)ethylenediamine (Merck), 30% (v/v) acetic acid, 1.5 N HCl] and incubated for 10 min at 50°C. The absorbance was measured at 540 nm.

The subject of experiment [4] is atherosclerosis in apolipoprotein-E-null mice. More on the design: method as in PMID 19129734. To be noted: cited from earlier work.

T1 sequence (P00592 23-146): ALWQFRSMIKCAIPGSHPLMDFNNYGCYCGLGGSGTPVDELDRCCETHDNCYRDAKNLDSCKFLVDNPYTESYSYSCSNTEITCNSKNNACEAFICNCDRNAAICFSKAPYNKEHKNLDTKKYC

`O=c1[nH]c(Cc2ccc(OCCCCCn3ccc4ccccc43)cc2)no1` [C1, 3-{4-[5-(indol-1-yl)pentoxy]benzyl}-4H-1,2,4-oxadiazol-5-one]: the IC50 in experiment [1] is greater than 100 µM; in experiment [2] it was 5 ± 0.7 µM. In addition, in experiment [3], the “effect on PGE2 secretion stimulated by IL-1β” value is given as “does not decrease”.
`O=c1[nH]c(Cc2ccc(OCCCCCOc3ccccc3-c3ccccc3)cc2)no1` [C2]: the results for the IC50 in experiment [1] and in experiment [2] were greater than 100 µM and 10 ± 1.5 µM, respectively.
For the compound `Cc1nc2cc(OCCCCCOc3ccc(Cc4noc(=O)[nH]4)cc3)ccc2s1` [C3], the IC50 in experiment [1] was greater than 100 µM; in experiment [2] it was 5 ± 1.2 µM.
Turning to `O=c1[nH]c(Cc2ccc(OCCCCCn3ccc4cc(Cl)ccc43)cc2)no1` [C4], the IC50 in experiment [1] is greater than 100 µM; in experiment [2], 6.5 ± 1.8 µM.
The corresponding values for `COc1ccc2c(ccn2CCCCCOc2ccc(Cc3noc(=O)[nH]3)cc2)c1` [C5] are greater than 100 µM and 2.5 ± 0.5 µM.
Consider `O=c1[nH]c(Cc2ccc(OCCCCCOc3ccc(-c4ccccc4)cc3)cc2)no1` [C6], for which the results for the IC50 in experiment [1] and in experiment [2] were greater than 100 µM and 3 ± 0.2 µM, respectively.
`O=c1[nH]c(Cc2ccc(OCCCCCOc3ccccc3)cc2)no1` [C7]: the IC50 was greater than 100 µM in experiment [1] and 35 ± 1.8 µM in experiment [2].
In the case of `CCc1c(C(=O)C(N)=O)c2c(OCC(=O)O)cccc2n1Cc1ccccc1` [Varespladib], the effect on atherosclerosis result in experiment [4] is “reduce atherosclerosis”.

The IC50 is the point on the concentration scale where inhibition reaches its midpoint. A low value points to greater potency.
